Experimental findings from patent US20130316374A1, “BREAST CANCER DIAGNOSTICS” (IMBA - INSTITUT FUR MOLEKULARE BIOTECHNOLOGIE GMBH, priority 2010, published 2013) are described below.

Experiment [1] relates to RANKL. In words: RANKL expression in purified mammary epithelial cells (qRT-PCR, Western blot). Format: in vivo, mouse. Conditions: nulliparous wild type females, 3 days after implantation/oral gavage. The procedure: a,b, MPA induces RANKL expression in mammary epithelial cells. Nulliparous wild type females were treated with oral gavage of DMBA or oil vehicle, s.c. implanted with slow-release MPA pellets, or treated with sham surgery. a, RANKL mRNA was determined in purified mammary epithelial cells by qRT-PCR 3 days after implantation/oral gavage. Data are shown as fold change compared to sham treatment+/−sem. n=3 mice per group. b, Expression of soluble (s) RANKL protein (19 kDa) was assayed on cell lysates from purified mammary epithelial cells by Western blot 3 days after treatment with oil vehicle, DMBA, MPA, or sham surgery. β-actin is shown as a loading control. […] Data are shown as percentage of tumor-free mice after the last DMBA challenge. No significant difference was found between the Cre+ and the Cre− control groups. Median tumor onset for Cre^+ controls was 9 days, for Cre^− controls 11 days, and for RANK^Δmam females 30 days after the last DMBA treatment. d, Representative Southern blot of MPA/DMBA-induced mammary tumors derived from RANK^flox/+; MMTV-Cre+ and RANK^flox/Δ; MMTV-Cre+ (RANK^Δmam) females. […]
Total RNA of tumors was prepared using the RNeasy Mini Kit (Qiagen), according to the manufacturer's instructions. Total RNA (2 μg) was subjected to quantitative (q)RT-PCR analysis. […]
A general note: In qPCR the cycle at which signal appears reflects the starting amount.

Experiment [2] concerns human SKBR3 breast cancer cells. The experiment can be described thus: Soft-Agar Colony Formation Assay. Format: cell-based. The settings on record: OPG (1 μg/ml) with RANKL (1 μg/ml). Here is the method:
a, Western blotting for phosphorylated (P) IKKα, total IKKα, phosphorylated (P) p65 NFκB, total p65 NFκB, phosphorylated (P) IκBα, and total IκBα in isolated primary mouse mammary gland epithelial cells (MECs) in response to RANKL stimulation (1 μg/ml). […] is shown as loading control. b, Western blotting for IKKα, IKKβ, IKKγ, phosphorylated (P) p65 NFκB, total p65 NFκB, phosphorylated (P) IκBα, and total IκBα in pooled late stage mammary adenocarconimas (n=4 for each lane) that developed in control, RANK^Δmam, and IKKα^Δmam females. β-actin is shown as loading control c, Expression of RANK, CyclinD1, and p21 mRNA in late stage mammary adenocacinomas that developed in control, RANK^Δmam, and IKKα^Δmam females. Expression was determined by qRT-PCR. Data are mean values+/−sem. n=4 per group. d, Soft-Agar Colony Formation Assay. Growth of human SKBR3 breast cancer cells in soft agar in response to stimulation with RANKL (1 μg/ml) or EGF (100 ng/ml). […] Apoptosis was detected by immunostaining for active Caspase 3. f, Apoptotic nuclei of epithelial cells (arrows) are shown for representative mammary gland sections. Magnifications ×40. g, Quantification of mammary epithelial apoptosis. A minimum of 5000 nuclei was counted for each mouse. […]

Consider `Cc1c2ccccc2c(C)c2c1ccc1ccccc12` [DMBA, dimethylbenz[a]anthracene], for which the “RANKL mRNA and protein expression in mammary epithelial cells” value in experiment [1] is on record as “not”.

B1: OPG: secreted decoy receptor that can reduce the RANKL activity (protein, UniProt O00300 22-401, looked up)
Tumor necrosis factor …: ETFPPKYLHYDEETSHQLLCDKCPPGTYLKQHCTAKWKTVCAPCPDHYYTDSWHTSDECLYCSPVCKELQYVKQECNRTHNRVCECKEGRYLEIEFCLKHRSCPPGFGVVQAGTPERNTVCKRCPDGFFSNETSSKAPCRKHTNCSVFGLLLTQKGNATHDNICSGNSESTQKCGIDVTLCEEAFFRFAVPTKFTPNWLSVLVDNLPGTKVNAESVERIKRQHSSQEQTFQLLKLWKHQNKDQDIVKKIIQDIDLCENSVQRHIGHANLTFEQLRSLMESLPGKKVGAEDIEKTIKACKPSDQILKLLSLWRIKNGDQDTLKGLMHALKHSKTYHFPKTVTQSLKKTIRFLHSFTMYKLYQKLFLEMIGNQVQSVKISCL
Turning to B1, the “RANKL-induced colony formation in soft agar” value in experiment [2] is on record as “prevented”.
